# Data taken from article PMC9414684, “Quantitative Structure–Neurotoxicity Assessment and In Vitro Evaluation of Neuroprotective and MAO-B Inhibitory Activities of Series N′-substituted 3-(1,3,7-trimethyl-xanthin-8-ylthio)propanehydrazides” (Molecules, 2022).
# Assays:
# [1] = system: isolated rat brain synaptosomes; assay: Synaptosomal viability (MTT test), compounds applied alone; format: cell-based; details: 100 µmol; for relative synaptosomal vitality (RV): synaptosomal viability relative to caffeine (1) = 1; for decrease of synaptosomal viability: applied alone, against the control (untreated synaptosomes); for neurotoxicity on synaptosomes in words: single application, compared to the control and to caffeine
# Protocol: (§1) The synaptosomes and mitochondria were prepared as explained in [54, 55] with the help of a colloidal silicon solution (Percoll): 1. Preparation of 90% stock solution of Percoll. 2. Preparation of Percoll solutions with two concentrations, 16% and 10%. An amount of 4 ml of Percoll 16% and 10% were added in the tubes. 3. An amount of 90% Percoll (7.5% Percoll) was added to the sediment from the last centrifugation. The tubes were centrifuged for 20 min at 15,000× g at 4 °C, resulting in the formation of three layers. The lower layer contained mitochondria, the upper layer, lipids and the middle layer (between 16% and 10% Percoll), synaptosomes. The middle and the lower layers of each tube were harvested and buffer B with glucose was added. The mixture was centrifuged at 10,000× g for 20 min at 4 °C. After centrifugation, the sediment with the synaptosomes and mitochondria was mixed with buffer B with glucose.
# After the incubation, the synaptosomes were centrifuged three times at 15,000× g for 1 min. An MTT test was performed to determine synaptosomal vitality by the method described in the literature. […]
# [2] = system: isolated rat brain microsomes; assay: MDA production in isolated brain microsomes, compounds applied alone; format: cell-based; details: 100 µmol; for pro-oxidant effect (MDA production): applied alone, compared to the control (untreated microsomes); for neurotoxicity on microsomes in words: tested alone, compared to the control and to caffeine
# Protocol: The brain microsomes were prepared according to the procedure described in [61]. […] The homogenate was centrifugated at 17,000× g for 30 min. The pellet was suspended in 4 vol of the homogenization buffer and centrifuged at 17,000× g for a further period of 30 min. The supernatants from both centrifugations were combined (post-mitochondrial supernatant) and centrifuged at 100,000× g for 1 h. The pellet was resuspended in the above buffer and centrifuged at 100,000× g for 1 h. The resulting pellet was frozen in the buffer with glycerol.
# The quantity of the lipid peroxidation product MDA was assessed, using the method, described in the literature.
# Analysis of quantitative structure–neurotoxicity relationships employed the data from in vitro assessments of synaptosome viability (%) and MDA production in microsomal fractions (nmol/0.1 mg protein) as indicators for the neurotoxicity of compounds.
# MAO-B = molecular target: MAO-B; parameters: method as in PMID 19342233; details: MAO-B inhibitor activity; cited from earlier work
# [3] = system: isolated rat brain mitochondria; assay: MDA production in isolated brain mitochondria, compounds applied alone; format: cell-based; details: 100 µmol, against the control (untreated mitochondria)
# Protocol: The synaptosomes and mitochondria were prepared as explained in [54, 55] with the help of a colloidal silicon solution (Percoll): 1. […] An amount of 4 ml of Percoll 16% and 10% were added in the tubes. 3. An amount of 90% Percoll (7.5% Percoll) was added to the sediment from the last centrifugation. The tubes were centrifuged for 20 min at 15,000× g at 4 °C, resulting in the formation of three layers. The lower layer contained mitochondria, the upper layer, lipids and the middle layer (between 16% and 10% Percoll), synaptosomes. The middle and the lower layers of each tube were harvested and buffer B with glucose was added. The mixture was centrifuged at 10,000× g for 20 min at 4 °C. After centrifugation, the sediment with the synaptosomes and mitochondria was mixed with buffer B with glucose. […] After that, the tubes were maintained in a bath filled with boiling water. Finally, the tubes were transferred to an ice bath and butanol (0.4 mL) was poured into each tube. In the next stage, centrifugation of the tubes was carried out at 3500× g for 10 min. Following that, assessment of the total quantity of MDA shaped in each sample was carried out using a spectrophotometer (UV-Vis Split) to measure the supernatant’s absorbance at 532 nm. The mitochondria were incubated with 75 µmol t-BuOOH [59]. The quantity of the lipid peroxidation product MDA was assessed, using the method, described in the literature.
# [4] = system: isolated rat synaptosomes; assay: 6-OHDA-induced oxidative stress model, GSH level; format: cell-based; details: for GSH levels stored (protected): 6-OHDA-induced oxidative stress, against the toxic agent
# Protocol: The level of reduced glutathione was determined by measuring the non-protein SH-groups after precipitation of the proteins with trichloroacetic acid. After the incubation, synaptosomes were centrifuged at 400× g for 3 min. These diment were treated with 5% trichloroacetic acid and left for 10 min on ice. Samples were centrifuged at 8000× g for 10 min (2 °C). The supernatant was removed to determine the level of GSH and was stored at −20 °C. Immediately before the measurement, the samples were neutralized with 5 N NaOH.
# The presence of thiols in the supernatant was determined using Ellman’s reagent. The resulting yellow color was measured spectrophotometrically at λ = 412 nm.
# This in vitro model resembles the neurodegenerative processes occurring in PD. Dopamine metabolism and oxidation lead to the formation of ROS and reactive quinones. They induce dopamine neurotoxicity and neurodegeneration. The synaptosomes were incubated with 150 μmol 6-OHDA for 1 h.
# [5] = system: isolated rat brain mitochondria; assay: GSH level in isolated brain mitochondria, compounds applied alone; format: cell-based; details: 100 µmol, against the control (untreated mitochondria)
# Protocol: as §1
# The DNTB spectrophotometric technique explained in [60] was applied for GSH content measurement in brain mitochondria. Then, 0.04% DTNB was mixed with the mitochondrial suspensions (0.5 mg protein/mL) in 0.1 mol/L of phosphate buffers (pH 7.4). The development of the yellow color was read at 412 nm (spectrophotometer UV-Vis Split).
# [6] = molecular target: T1, human recombinant MAO-B enzyme (hMAOB) (Homo sapiens, UniProt P27338); assay: Monoamine oxidase B activity, fluorimetric Amplex Ultra Red assay, tyramine substrate; format: biochemical; details: 1 µmol, applied alone, against the control (pure hMAOB)
# T1 sequence (P27338 1-520): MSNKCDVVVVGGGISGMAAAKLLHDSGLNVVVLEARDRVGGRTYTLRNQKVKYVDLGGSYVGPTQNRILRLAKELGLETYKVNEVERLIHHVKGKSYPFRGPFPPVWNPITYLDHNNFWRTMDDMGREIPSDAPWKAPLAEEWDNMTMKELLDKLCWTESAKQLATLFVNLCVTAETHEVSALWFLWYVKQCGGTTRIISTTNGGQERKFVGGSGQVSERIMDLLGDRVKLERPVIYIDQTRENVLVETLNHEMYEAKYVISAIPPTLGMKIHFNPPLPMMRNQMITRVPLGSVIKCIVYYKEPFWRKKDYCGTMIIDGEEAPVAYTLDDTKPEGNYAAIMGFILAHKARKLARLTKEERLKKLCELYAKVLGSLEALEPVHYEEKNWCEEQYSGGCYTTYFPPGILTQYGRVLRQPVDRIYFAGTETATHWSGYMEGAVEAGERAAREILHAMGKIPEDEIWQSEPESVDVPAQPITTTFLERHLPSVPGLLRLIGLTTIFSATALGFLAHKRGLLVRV
# Protocol: Monoamine oxidase activity assay of recombinant human MAO-B was performed using a fluorimetric method by Amplex Ultra Redreagent [63]. Tyramine hydrochloride was used as substrate.
# The MAO-B activity was normalized as a percentage of the untreated control set as 100% and the results were expressed as mean values and standard deviation (±SD). Statistical analysis was performed by one-way analysis of variance (ANOVA) with a post hoc multiple comparisons procedure (Dunnet’s test) to assess the statistical differences in case of normal distribution. Values of p < 0.05, p < 0.01 and p < 0.001 were considered as statistically significant.
# isolated rat microsomes = assay: Fe2+/AA-induced lipid peroxidation model, MDA production; format: cell-based; details: 100 µmol, compared to the toxic agent
# Protocol: The microsomes were pre-incubated with the analyzed compounds for 15 min at 37 °C. The reaction was started with a solution of iron sulphate 20 μmol and ascorbic acid 0.5 mmol. […] After starting the reaction, the LPO and the MDA quantity was assessed [62].
# The quantity of the lipid peroxidation product MDA was assessed, using the method, described in the literature [62].
# [7] = system: isolated rat synaptosomes; assay: 6-OHDA-induced oxidative stress model, synaptosomal vitality; format: cell-based; details: against the toxic agent
# Protocol: After the incubation, the synaptosomes were centrifuged three times at 15,000× g for 1 min. An MTT test was performed to determine synaptosomal vitality by the method described in the literature [56]. […] The synaptosomes were incubated with 150 μmol 6-OHDA for 1 h [58].
compound,measurement,setting,value
Cc1cc(C)c(C=NNC(=O)CCSc2nc3c(c(=O)n(C)c(=O)n3C)n2C)c(C)c1 [6m],relative synaptosomal vitality (RV),[1],0.716
COc1ccc(C=NNC(=O)CCSc2nc3c(c(=O)n(C)c(=O)n3C)n2C)cc1OC [6g],relative synaptosomal vitality (RV),[1],0.716
Cn1c(=O)c2c(nc(SCCC(=O)NN=Cc3cccc([N+](=O)[O-])c3)n2C)n(C)c1=O [6o],relative synaptosomal vitality (RV),[1],0.757
"Cn1c(=O)c2c(ncn2C)n(C)c1=O [compound 1, caffeine, reference compound]",pro-oxidant effect (MDA production),[2],did not show any statistically significant pro-oxidant effect
same,neurotoxicity on microsomes in words,[2],lowest neurotoxicity
same,Ki,MAO-B,3.6 mM
same,change of MDA production,[3],did not change statistically significantly
same,GSH levels stored (protected),[4],30%
same,decrease of synaptosomal viability,[1],26%
same,neurotoxicity on synaptosomes in words,[1],lowest neurotoxicity
Cn1c(=O)c2c(nc(SCCC(=O)NN=Cc3ccc(Br)cc3)n2C)n(C)c1=O [6e],relative synaptosomal vitality (RV),[1],0.743
COc1cc(C=NNC(=O)CCSc2nc3c(c(=O)n(C)c(=O)n3C)n2C)cc(OC)c1O [6i],relative synaptosomal vitality (RV),[1],0.743
"Cn1c(=O)c2c(nc(SCCC(=O)NN=Cc3ccccc3O)n2C)n(C)c1=O [6l, N′-(2-hydroxybenzylidene)-3-(1,3,7-trimethyl-2,6-dioxo-2,3,6,7-tetrahydro-1H-purin-8-ylthio)propanehydrazide]",pro-oxidant effect (MDA production),[2],did not show any statistically significant pro-oxidant effect
same,neurotoxicity on microsomes in words,[2],lowest neurotoxicity
same,neurotoxic effect on GSH level,[5],did not show any statistically significant neurotoxic effect
same,inhibition of hMAOB activity,[6],30%
same,change of MDA production,[3],did not change statistically significantly
same,GSH levels stored (protected),[4],42%
same,reduction of MDA production,isolated rat microsomes,50%
same,decrease of synaptosomal viability,[1],28%
same,neurotoxicity on synaptosomes in words,[1],lowest neurotoxicity
same,relative synaptosomal vitality (RV),[1],0.973
same,protection of synaptosomal vitality,[7],36%
"COc1cccc(C=NNC(=O)CCSc2nc3c(c(=O)n(C)c(=O)n3C)n2C)c1OC [6k, N′-(2,3-dimethoxybenzylidene)-3-(1,3,7-trimethyl-2,6-dioxo-2,3,6,7-tetrahydro-1H-purin-8-ylthio)propanehydrazide]",pro-oxidant effect (MDA production),[2],did not show any statistically significant pro-oxidant effect
same,neurotoxicity on microsomes in words,[2],lowest neurotoxicity
same,inhibition of hMAOB activity,[6],25%
same,change of MDA production,[3],did not change statistically significantly
same,GSH levels stored (protected),[4],20%
same,reduction of MDA production,isolated rat microsomes,38%
same,decrease of synaptosomal viability,[1],29%
same,neurotoxicity on synaptosomes in words,[1],lowest neurotoxicity
same,relative synaptosomal vitality (RV),[1],0.959
same,protection of synaptosomal vitality,[7],20%
COc1cc(C=NNC(=O)CCSc2nc3c(c(=O)n(C)c(=O)n3C)n2C)cc(OC)c1OC [6h],relative synaptosomal vitality (RV),[1],0.703
Cn1c(=O)c2c(nc(SCCC(=O)NN=Cc3ccc(C(F)(F)F)cc3)n2C)n(C)c1=O [6f],relative synaptosomal vitality (RV),[1],0.757
Cn1c(=O)c2c(nc(SCCC(=O)NN=Cc3c(Cl)cccc3Cl)n2C)n(C)c1=O [6c],relative synaptosomal vitality (RV),[1],0.689
COc1cc(C=NNC(=O)CCSc2nc3c(c(=O)n(C)c(=O)n3C)n2C)ccc1O [6j],relative synaptosomal vitality (RV),[1],0.730
COc1cccc(C=NNC(=O)CCSc2nc3c(c(=O)n(C)c(=O)n3C)n2C)c1O [6n],relative synaptosomal vitality (RV),[1],0.689
"NCCc1cc(O)c(O)cc1O [6-OHDA, 6-hydroxydopamine, reference compound]",decrease of GSH levels by the toxic agent,"[4]; 6-OHDA applied alone (150 μmol, 1 h), against the control (untreated synaptosomes)",50%
Cn1c(=O)c2c(nc(SCCC(=O)NN=Cc3cccc(Cl)c3)n2C)n(C)c1=O [6d],relative synaptosomal vitality (RV),[1],0.730
Cn1c(=O)c2c(nc(SCCC(=O)NN=Cc3ccc([N+](=O)[O-])cc3)n2C)n(C)c1=O [6b],relative synaptosomal vitality (RV),[1],0.703
Cn1c(=O)c2c(nc(SCCC(=O)NN=Cc3ccccc3)n2C)n(C)c1=O [6a],relative synaptosomal vitality (RV),[1],0.743
